Experimental data published in US8173635B2, “Kinase inhibitors” (Vertex Pharmaceuticals Incorporated, priority 2007, dated 2012).
Where two headings read alike, the source gives them in different places.

What was measured:
Assay type in all cases: biochemical
PKC alpha kinase = PKC alpha kinase (Homo sapiens, UniProt P17252); experiment: PKC alpha kinase inhibition, coupled-enzyme NADH absorbance assay (Ki)
PKC theta kinase = PKC theta kinase (Homo sapiens, UniProt Q04759); experiment: PKC theta kinase inhibition, coupled-enzyme NADH absorbance assay (Ki)
Chain of PKC theta kinase (Q04759 whole entry): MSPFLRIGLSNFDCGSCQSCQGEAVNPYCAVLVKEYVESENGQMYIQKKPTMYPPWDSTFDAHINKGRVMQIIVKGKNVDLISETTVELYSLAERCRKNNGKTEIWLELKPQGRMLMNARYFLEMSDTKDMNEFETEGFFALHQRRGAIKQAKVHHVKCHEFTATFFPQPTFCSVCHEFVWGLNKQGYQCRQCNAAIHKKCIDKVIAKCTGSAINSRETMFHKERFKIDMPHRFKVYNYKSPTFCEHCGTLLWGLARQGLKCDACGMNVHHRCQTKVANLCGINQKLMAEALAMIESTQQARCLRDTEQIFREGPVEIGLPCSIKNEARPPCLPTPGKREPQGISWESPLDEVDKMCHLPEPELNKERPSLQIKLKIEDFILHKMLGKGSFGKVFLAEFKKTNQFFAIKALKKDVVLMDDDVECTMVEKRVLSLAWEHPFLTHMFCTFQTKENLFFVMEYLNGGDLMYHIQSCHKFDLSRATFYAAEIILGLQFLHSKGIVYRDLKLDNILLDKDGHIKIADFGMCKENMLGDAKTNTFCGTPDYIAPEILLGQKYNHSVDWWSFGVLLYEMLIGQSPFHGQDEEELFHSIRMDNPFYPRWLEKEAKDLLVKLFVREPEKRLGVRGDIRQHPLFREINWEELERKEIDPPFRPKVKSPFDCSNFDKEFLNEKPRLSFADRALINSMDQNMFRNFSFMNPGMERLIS
Outline: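 Enzyme and compound equilibrated 10 min at 30 °C before reaction in HEPES pH 7.5 buffer with MgCl2, NaCl, EDTA and Brij. Activity tracked as NADH loss at 340 nm through a coupled system. Initial-rate data fitted by non-linear regression to give Ki.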

PKC delta kinase = PKC delta kinase (Homo sapiens, UniProt Q05655); experiment: PKC delta kinase inhibition, coupled-enzyme NADH absorbance assay (Ki)
Chain of PKC delta kinase (Q05655 whole entry): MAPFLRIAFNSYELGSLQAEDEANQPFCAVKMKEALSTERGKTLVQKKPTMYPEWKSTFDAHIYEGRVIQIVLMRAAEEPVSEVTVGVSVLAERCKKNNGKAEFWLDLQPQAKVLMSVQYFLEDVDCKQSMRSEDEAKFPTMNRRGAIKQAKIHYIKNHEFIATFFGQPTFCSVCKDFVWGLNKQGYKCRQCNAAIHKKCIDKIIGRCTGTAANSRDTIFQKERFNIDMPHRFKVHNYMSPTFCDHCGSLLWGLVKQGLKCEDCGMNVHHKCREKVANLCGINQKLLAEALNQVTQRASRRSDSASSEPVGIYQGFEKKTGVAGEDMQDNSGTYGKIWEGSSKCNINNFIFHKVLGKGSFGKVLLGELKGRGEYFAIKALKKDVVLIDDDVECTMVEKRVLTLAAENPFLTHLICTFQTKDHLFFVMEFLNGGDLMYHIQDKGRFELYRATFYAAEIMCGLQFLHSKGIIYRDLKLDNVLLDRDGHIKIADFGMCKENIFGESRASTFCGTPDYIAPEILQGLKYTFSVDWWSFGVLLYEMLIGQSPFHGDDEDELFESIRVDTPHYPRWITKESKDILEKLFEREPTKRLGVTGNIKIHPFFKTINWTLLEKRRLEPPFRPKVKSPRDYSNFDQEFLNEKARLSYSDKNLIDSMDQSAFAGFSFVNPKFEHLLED
Outline: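 Assay buffer was 100 mM HEPES pH 7.5, 10 mM MgCl2, 25 mM NaCl, 0.1 mM EDTA, 0.01% Brij. Enzyme buffer was equilibrated with compound in DMSO for 10 min at 30 °C. Ki values were derived by non-linear regression of initial rate data.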

[1] = 130 μM ATP, 4.5 nM PKC alpha, 30° C., read-out: Ki PKC alpha
[2] = 240 μM ATP, 18 nM PKC theta, 30° C., read-out: Ki PKC theta
[3] = 150 μM ATP, 46 nM PKC delta, 30° C., read-out: Ki PKC delta

SMILES	Ki (PKC alpha kinase; [1]) [µM]	Ki (PKC theta kinase; [2]) [µM]	Ki (PKC delta kinase; [3]) [µM]	Ki (PKC alpha kinase) [µM]	Ki (PKC theta kinase) [µM]	Ki (PKC delta kinase) [µM]
COCC[C@@](C)(CN)c1cccc(-c2ccnc3[nH]nc(C(F)(F)F)c23)c1 [Compound 286]	< 0.5	< 0.05	< 0.5	–	–	–
N#CC1(c2cccc(-c3ccnc4[nH]nc(Cl)c34)c2)CCC1 [Compound 259]	< 0.5	< 0.05	< 0.5	–	–	–
CC[C@](C)(CN)c1cccc(-c2ccnc3[nH]ncc23)c1 [Compound 151]	< 0.5	< 0.05	< 0.05	–	–	–
NCC1(c2cc(F)cc(-c3ccnc4[nH]nc(C(F)(F)F)c34)c2)CCC1 [Compound 274]	< 0.05	< 0.05	< 0.5	–	–	–
COc1ccc(CC(C)(CN)c2cccc(-c3ccnc4[nH]ncc34)c2)cc1 (stereo not drawn) [Compound 174]	< 0.5	< 0.05	< 0.5	–	–	–
CCC(C)(C#N)c1cccc(-c2ccnc3[nH]ncc23)c1 (stereo not drawn) [Compound 64, 2-(3-(1H-pyrazolo[3,4-b]pyridin-4-yl)phenyl)-2-methylbutanenitrile]	< 2.8	< 0.5	< 2.8	–	–	–
CCC(C)(CN)c1cc(Br)cc(-c2ccnc3[nH]ncc23)c1 (stereo not drawn) [Compound 167]	< 0.5	< 0.05	< 0.5	–	–	–
Cc1cc(-c2ccnc3[nH]nc(C(F)(F)F)c23)cc(C2(CN)CCC2)c1 [Compound 215]	< 0.5	< 0.05	< 0.5	–	–	–
CC(CN)(CC1CCOCC1)c1cccc(-c2ccnc3[nH]ncc23)c1 (stereo not drawn) [Compound 179]	< 0.5	< 0.05	< 0.5	–	–	–
N#CC1(c2cc(-c3ccnc4[nH]ncc34)cc(C(F)(F)CCN)c2)CC1 [Compound 330]	< 0.5	< 0.05	< 0.5	–	–	–
CC#CCC(C)(CN)c1cc(C)cc(-c2ccnc3[nH]ncc23)c1 (stereo not drawn) [Compound 234]	< 0.5	< 0.05	< 0.05	–	–	–
NCC1(c2cc(F)cc(-c3ccnc4[nH]nc(C(F)(F)F)c34)c2)CCOCC1 [Compound 276]	< 0.5	< 0.05	< 2.8	–	–	–
CC(C)(C#N)c1cc(-c2ccc[nH]2)cc(-c2ccnc3[nH]ncc23)c1 [Compound 59]	> 2.8	< 0.5	> 2.8	–	–	–
CCC(C)(CN)c1cccc(-c2ccnc3[nH]nc(C(F)(F)F)c23)c1 (stereo not drawn) [Compound 213, 2-methyl-2-(3-(3-(trifluoromethyl)-1H-pyrazolo[3,4-b]pyridin-4-yl)phenyl)butan-1-amine]	< 0.05	< 0.05	< 0.05	–	–	–
N#CC1(c2cc(-c3ccnc4[nH]ncc34)cc(C(F)(F)C3CNC3)c2)CC1 [Compound 328]	< 2.8	< 0.05	< 2.8	–	–	–
CCC(C)(CN)c1cc(CCC(F)F)cc(-c2ccnc3[nH]ncc23)c1 (stereo not drawn) [Compound 161]	< 2.8	< 0.5	> 2	–	–	–
CCCC(C)(CN)c1cccc(-c2ccnc3[nH]ncc23)c1 (stereo not drawn) [Compound 51]	< 0.5	< 0.05	< 0.05	–	–	–
CC(C)(CN)c1cc(Br)cc(-c2ccnc3[nH]ncc23)c1 [Compound 34]	< 2.8	< 0.05	< 0.5	–	–	–
CC(CN)(Cc1cccnc1)c1cccc(-c2ccnc3[nH]ncc23)c1 (stereo not drawn) [Compound 171]	< 0.5	< 0.05	< 0.5	–	–	–

SMILES	Ki (PKC alpha kinase; [1]) [µM]	Ki (PKC theta kinase; [2]) [µM]	Ki (PKC delta kinase; [3]) [µM]	Ki (PKC alpha kinase) [µM]	Ki (PKC theta kinase) [µM]	Ki (PKC delta kinase) [µM]
N#CC1(c2cc(-c3ccnc4[nH]ncc34)cc(C(F)(F)CN)c2)CC1 [Compound 122]	< 2.8	< 0.05	< 2.8	–	–	–
CCc1n[nH]c2nccc(-c3cc(CCCN)cc(C4(C#N)CC4)c3)c12 [Compound 302]	< 2.8	< 0.05	< 0.5	–	–	–
Cc1cc(-c2ccnc3[nH]nc(C(F)(F)F)c23)cc(C(C)(C)C#N)c1 [Compound 324]	< 0.5	< 0.05	> 1.2	–	–	–
CC(C)(C#N)c1cc(NCCCN)cc(-c2ccnc3[nH]ncc23)c1 [Compound 21]	> 2.8	< 0.5	> 2.8	–	–	–
CCC(C)(C#N)c1cc(CCCF)cc(-c2ccnc3[nH]ncc23)c1 (stereo not drawn) [Compound 107]	< 2.8	< 0.5	> 2	–	–	–
N#CC(CCN)c1cccc(-c2ccnc3[nH]ncc23)c1 (stereo not drawn) [Compound 225]	< 2.8	< 0.5	< 2.8	–	–	–
CCCc1cc(-c2ccnc3[nH]ncc23)cc(C2(CCN)CCC2)c1 [Compound 187]	> 1.2	< 2.8	> 2	–	–	–
CC(C)=CCC(C)(CN)c1cccc(-c2ccnc3[nH]ncc23)c1 (stereo not drawn) [Compound 154]	< 0.5	< 0.05	< 0.5	–	–	–
C=CCC(C)(CN)c1cccc(-c2ccnc3[nH]ncc23)c1 (stereo not drawn) [Compound 134]	< 0.5	< 0.05	< 0.5	–	–	–
CCc1cc(-c2ccnc3[nH]nc(Cl)c23)cc(C(C)(CC)CN)c1 (stereo not drawn) [Compound 256]	< 0.05	< 0.05	< 0.5	–	–	–
NCC1(c2cc(-c3ccnc4[nH]ncc34)cc(C(F)(F)F)c2)CCC1 [Compound 140]	< 2.8	< 0.5	< 2.8	–	–	–
CCC1(c2cc(C)cc(-c3ccnc4[nH]ncc34)c2)CNC(=O)O1 (stereo not drawn) [Compound 228]	< 0.5	< 0.05	< 2.8	–	–	–
NCC1(c2cc(F)cc(-c3ccnc4[nH]ncc34)c2)CCC1 [Compound 188]	< 0.5	< 0.05	< 2.8	–	–	–
N#CC1(c2cc(-c3ccnc4[nH]ncc34)cc(C(F)(F)F)c2)CCC1 [Compound 92]	< 2.8	< 0.5	> 2.8	–	–	–
Cc1cc(-c2ccnc3[nH]nc(Cl)c23)cc(C2(CN)CCC2)c1 [Compound 207]	< 0.5	< 0.05	< 0.5	–	–	–
NC1(c2cccc(-c3ccnc4[nH]ncc34)c2)CC1 [Compound 223]	> 1.2	< 2.8	> 2	–	–	–
N#C[C@]1(c2cccc(-c3ccnc4[nH]ncc34)c2)C[C@@H](O)C1 [Compound 220]	> 1.2	< 0.5	> 2	–	–	–
CCC(CC)(CN)c1cccc(-c2ccnc3[nH]ncc23)c1 [Compound 47]	< 0.5	< 0.05	< 0.5	–	–	–
CCC(C)(C#N)c1cc(CCCOC)cc(-c2ccnc3[nH]ncc23)c1 (stereo not drawn) [Compound 109]	< 2.8	< 0.5	> 2	–	–	–

SMILES	Ki (PKC alpha kinase; [1]) [µM]	Ki (PKC theta kinase; [2]) [µM]	Ki (PKC delta kinase; [3]) [µM]	Ki (PKC alpha kinase) [µM]	Ki (PKC theta kinase) [µM]	Ki (PKC delta kinase) [µM]
CCC(C)(CC#N)c1cc(-c2ccnc3[nH]ncc23)cc(C(F)(F)CCC2CCCC2)c1 (stereo not drawn) [Compound 239]	> 1.2	> 0.7	> 2	–	–	–
C1=C(c2cccc(-c3ccnc4[nH]ncc34)c2)CCNC1 [Compound 216]	< 2.8	< 0.5	< 2.8	–	–	–
C=C1CCc2ccc(-c3ccnc4[nH]ncc34)cc21 [Compound 202, 4-(3-Methylene-2,3-dihydro-1H-inden-5-yl)-1H-pyrazolo[3,4-b]pyridine]	> 2.8	> 2.8	> 2.8	–	–	–
CC(CN)(CC1CC1)c1cccc(-c2ccnc3[nH]ncc23)c1 (stereo not drawn) [Compound 129]	< 0.5	< 0.05	< 0.05	–	–	–
Cc1n[nH]c2nccc(-c3cc(F)cc(C4(CN)CCC4)c3)c12 [Compound 262]	< 0.5	< 0.05	< 0.5	–	–	–
CC(C)CC(C)(CN)c1cccc(-c2ccnc3[nH]ncc23)c1 (stereo not drawn) [Compound 45]	< 0.5	< 0.05	< 0.5	–	–	–
CC(CN)(c1cccc(-c2ccnc3[nH]ncc23)c1)C1CCCC1 (stereo not drawn) [Compound 46]	< 0.5	< 0.05	< 0.5	–	–	–
CCC1(c2cccc(-c3ccnc4[nH]ncc34)c2)CNC(=O)O1 (stereo not drawn) [Compound 254]	< 0.5	< 0.05	< 0.5	–	–	–
NCCc1cc(Br)cc(-c2ccnc3[nH]ncc23)c1 [Compound 176]	–	–	–	> 1.2	< 0.5	< 2.8
COC(CN)c1cc(C)cc(-c2ccnc3[nH]ncc23)c1 (stereo not drawn) [Compound 248]	< 2.8	< 0.5	< 2.8	–	–	–
CCC(C)(CN)c1cc(-c2ccnc3[nH]ncc23)cc(C(F)(F)F)c1 (stereo not drawn) [Compound 139]	< 0.5	< 0.05	< 0.5	–	–	–
C=Cc1ccc(-c2ccnc3n[nH]cc23)cc1C(C)(C)C#N [Compound 84]	> 2.8	< 2.8	> 2.8	–	–	–
N#CC(c1cccc(-c2ccnc3[nH]ncc23)c1)N1CCNCC1 (stereo not drawn) [Compound 321]	> 1.2	< 0.5	> 1.2	–	–	–
CC(C)(CN)c1cccc(-c2ccnc3[nH]ncc23)c1 [Compound 31, 2-(3-(1H-pyrazolo[3,4-b]pyridin-4-yl)phenyl)-2-methylpropan-1-amine]	< 2.8	< 0.05	< 0.5	–	–	–
C=CC1(c2cccc(-c3ccnc4[nH]ncc34)c2)CCNC1 (stereo not drawn) [Compound 193, 4-(3-(3-Vinylpyrrolidin-3-yl)phenyl)-1H-pyrazolo[3,4-b]pyridine]	< 0.5	< 0.5	< 0.5	–	–	–
CCC(C)(CN)c1cccc(-c2ccnc3[nH]ncc23)c1 (stereo not drawn) [Compound 41]	< 0.5	< 0.05	< 0.05	–	–	–
OCC1(c2cccc(-c3ccnc4[nH]ncc34)c2)CCC1 [Compound 242]	> 1.2	< 0.5	> 2	–	–	–
NC[C@]1(c2cccc(-c3ccnc4[nH]ncc34)c2)CC[C@@H](O)CC1 [Compound 182]	> 1.2	< 0.5	< 2.8	–	–	–
